# Data as given in PMC4620497 (Scientific Reports, 2015).
# Columns and labels:
# RIOK1 = target: T1, RIOK1 (Homo sapiens, UniProt Q9BRS2); experiment: KINOMEscan panel screen; assay type: binding; conditions: read-out: Percent Control(%)
# T1 construct: purchased DiscoveRx KINOMEscan (Ambit Biosciences)
# TNK1 = target: T2, TNK1 (Homo sapiens, UniProt Q13470); experiment: KINOMEscan panel screen; assay type: binding; conditions: read-out: Percent Control(%)
# T2 construct: purchased DiscoveRx KINOMEscan (Ambit Biosciences)
# T2 sequence (Q13470 whole entry): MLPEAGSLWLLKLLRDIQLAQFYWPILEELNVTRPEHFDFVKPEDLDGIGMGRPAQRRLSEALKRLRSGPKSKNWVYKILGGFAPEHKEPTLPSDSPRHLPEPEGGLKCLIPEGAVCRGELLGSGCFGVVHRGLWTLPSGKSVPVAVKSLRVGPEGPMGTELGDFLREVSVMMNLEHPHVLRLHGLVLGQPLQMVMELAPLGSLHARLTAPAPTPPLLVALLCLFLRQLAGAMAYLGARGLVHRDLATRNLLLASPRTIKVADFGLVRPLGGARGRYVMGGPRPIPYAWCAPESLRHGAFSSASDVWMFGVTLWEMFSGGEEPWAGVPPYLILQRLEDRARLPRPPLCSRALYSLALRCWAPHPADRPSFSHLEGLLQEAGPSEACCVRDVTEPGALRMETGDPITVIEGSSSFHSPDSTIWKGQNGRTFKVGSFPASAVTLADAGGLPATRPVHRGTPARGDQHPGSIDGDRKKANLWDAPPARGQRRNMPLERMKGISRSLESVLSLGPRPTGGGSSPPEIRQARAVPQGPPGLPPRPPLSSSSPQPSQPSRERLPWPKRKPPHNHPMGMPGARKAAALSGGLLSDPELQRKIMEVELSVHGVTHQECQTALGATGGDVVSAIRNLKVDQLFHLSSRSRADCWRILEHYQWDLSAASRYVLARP
# FGFR1 = target: T3, FGFR1 (Homo sapiens, UniProt P11362); experiment: KINOMEscan panel screen; assay type: binding; conditions: read-out: Percent Control(%)
# T3 construct: purchased DiscoveRx KINOMEscan (Ambit Biosciences)
# T3 sequence (P11362 22-822): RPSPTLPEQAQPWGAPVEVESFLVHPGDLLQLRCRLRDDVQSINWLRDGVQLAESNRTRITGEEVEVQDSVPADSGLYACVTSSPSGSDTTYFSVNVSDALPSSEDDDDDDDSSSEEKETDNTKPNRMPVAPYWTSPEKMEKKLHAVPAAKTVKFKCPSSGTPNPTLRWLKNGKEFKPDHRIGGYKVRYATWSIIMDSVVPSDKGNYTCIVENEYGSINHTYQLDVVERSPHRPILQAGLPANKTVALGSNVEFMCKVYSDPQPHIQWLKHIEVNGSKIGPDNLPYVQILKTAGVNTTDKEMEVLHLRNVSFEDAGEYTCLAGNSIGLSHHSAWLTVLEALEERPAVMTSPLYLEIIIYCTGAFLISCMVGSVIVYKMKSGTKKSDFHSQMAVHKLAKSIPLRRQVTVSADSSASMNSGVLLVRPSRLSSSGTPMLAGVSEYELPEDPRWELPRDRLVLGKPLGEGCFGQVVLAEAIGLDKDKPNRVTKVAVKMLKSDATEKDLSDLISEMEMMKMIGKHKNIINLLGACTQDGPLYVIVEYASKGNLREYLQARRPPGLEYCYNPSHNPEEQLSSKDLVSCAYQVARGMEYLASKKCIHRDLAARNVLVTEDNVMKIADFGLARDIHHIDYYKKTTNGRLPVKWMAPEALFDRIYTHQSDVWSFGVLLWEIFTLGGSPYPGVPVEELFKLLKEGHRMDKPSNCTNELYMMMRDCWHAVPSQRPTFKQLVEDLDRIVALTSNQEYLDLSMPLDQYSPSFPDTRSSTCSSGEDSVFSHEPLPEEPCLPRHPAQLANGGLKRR
# SLK = target: T4, SLK (Homo sapiens, UniProt Q9H2G2); experiment: KINOMEscan panel screen; assay type: binding; conditions: read-out: Percent Control(%)
# T4 construct: purchased DiscoveRx KINOMEscan (Ambit Biosciences)
# DLK = target: T5, DLK (Homo sapiens, UniProt Q12852); experiment: KINOMEscan panel screen; assay type: binding; conditions: read-out: Percent Control(%)
# T5 sequence (Q12852 1-859): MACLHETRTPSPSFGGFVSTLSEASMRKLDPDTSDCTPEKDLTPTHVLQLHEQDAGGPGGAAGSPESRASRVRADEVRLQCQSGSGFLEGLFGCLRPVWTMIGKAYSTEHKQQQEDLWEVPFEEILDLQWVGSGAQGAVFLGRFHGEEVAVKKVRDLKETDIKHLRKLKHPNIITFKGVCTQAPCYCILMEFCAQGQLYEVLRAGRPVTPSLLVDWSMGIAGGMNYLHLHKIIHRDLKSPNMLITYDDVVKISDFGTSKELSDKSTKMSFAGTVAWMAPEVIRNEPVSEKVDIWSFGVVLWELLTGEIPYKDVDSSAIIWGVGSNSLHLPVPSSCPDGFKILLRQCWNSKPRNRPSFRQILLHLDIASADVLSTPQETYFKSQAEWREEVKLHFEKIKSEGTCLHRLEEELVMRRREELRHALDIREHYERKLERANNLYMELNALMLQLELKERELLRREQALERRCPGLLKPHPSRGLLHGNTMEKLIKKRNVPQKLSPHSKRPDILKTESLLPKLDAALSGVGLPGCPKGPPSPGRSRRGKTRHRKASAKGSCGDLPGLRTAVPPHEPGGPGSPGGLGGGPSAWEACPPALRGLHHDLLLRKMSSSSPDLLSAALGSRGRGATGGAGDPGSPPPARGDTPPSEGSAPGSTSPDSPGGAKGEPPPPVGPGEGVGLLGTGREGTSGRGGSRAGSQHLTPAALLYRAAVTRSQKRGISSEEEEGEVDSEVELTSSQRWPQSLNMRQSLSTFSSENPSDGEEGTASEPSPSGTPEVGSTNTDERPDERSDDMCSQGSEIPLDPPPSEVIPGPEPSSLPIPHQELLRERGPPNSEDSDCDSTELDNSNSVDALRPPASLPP
# TAK1 = target: T6, TAK1 (Homo sapiens, UniProt O43318); experiment: KINOMEscan panel screen; assay type: binding; conditions: read-out: Percent Control(%)
# T6 construct: purchased DiscoveRx KINOMEscan (Ambit Biosciences)
# BMX = target: T7, BMX (Homo sapiens, UniProt P51813); experiment: KINOMEscan panel screen; assay type: binding; conditions: read-out: Percent Control(%)
# T7 construct: purchased DiscoveRx KINOMEscan (Ambit Biosciences)
# [1] = test system: total β-catenin and active β-catenin in STF3a cells; experiment: Western blot of β-catenin in STF3a cells; assay type: cell-based; conditions: 10 μM or above, 24 h
# PIK3CA(E545K) = target: T8, PIK3CA(E545K) (Homo sapiens, UniProt P42336, E545K); experiment: KINOMEscan panel screen; assay type: binding; conditions: read-out: Percent Control(%)
# T8 construct: purchased DiscoveRx KINOMEscan (Ambit Biosciences)
# ACVR2B = target: T9, ACVR2B (Homo sapiens, UniProt Q13705); experiment: KINOMEscan panel screen; assay type: binding; conditions: read-out: Percent Control(%)
# T9 construct: purchased DiscoveRx KINOMEscan (Ambit Biosciences)
# MAP3K15 = target: T10, MAP3K15 (Homo sapiens, UniProt Q6ZN16); experiment: KINOMEscan panel screen; assay type: binding; conditions: read-out: Percent Control(%)
# T10 construct: purchased DiscoveRx KINOMEscan (Ambit Biosciences)
# YES = target: T11, YES (Homo sapiens, UniProt P07947); experiment: KINOMEscan panel screen; assay type: binding; conditions: read-out: Percent Control(%)
# T11 construct: purchased DiscoveRx KINOMEscan (Ambit Biosciences)
# SU-DHL-6 = experiment: MTT cell viability assay; conditions: Homo sapiens, SU-DHL-6, 72 h
# RET(M918T) = target: T12, RET(M918T) (Homo sapiens, UniProt P07949, M918T); experiment: KINOMEscan panel screen; assay type: binding; conditions: read-out: Percent Control(%)
# T12 construct: purchased DiscoveRx KINOMEscan (Ambit Biosciences)
# CDK7 = target: T13, CDK7 (Homo sapiens, UniProt P50613); experiment: KINOMEscan panel screen; assay type: binding; conditions: read-out: Percent Control(%)
# T13 construct: purchased DiscoveRx KINOMEscan (Ambit Biosciences)
# T13 sequence (P50613 whole entry): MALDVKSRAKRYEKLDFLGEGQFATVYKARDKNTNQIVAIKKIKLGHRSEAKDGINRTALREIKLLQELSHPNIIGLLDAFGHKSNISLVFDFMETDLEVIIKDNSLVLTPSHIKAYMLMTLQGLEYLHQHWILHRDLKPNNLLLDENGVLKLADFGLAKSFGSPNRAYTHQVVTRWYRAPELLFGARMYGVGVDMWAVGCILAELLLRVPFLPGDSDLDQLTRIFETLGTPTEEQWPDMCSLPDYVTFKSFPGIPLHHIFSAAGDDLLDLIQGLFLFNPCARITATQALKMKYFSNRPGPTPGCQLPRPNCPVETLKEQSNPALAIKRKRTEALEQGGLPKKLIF
# PRKCE = target: T14, PRKCE (Homo sapiens, UniProt Q02156); experiment: KINOMEscan panel screen; assay type: binding; conditions: read-out: Percent Control(%)
# T14 construct: purchased DiscoveRx KINOMEscan (Ambit Biosciences)
# T14 sequence (Q02156 whole entry): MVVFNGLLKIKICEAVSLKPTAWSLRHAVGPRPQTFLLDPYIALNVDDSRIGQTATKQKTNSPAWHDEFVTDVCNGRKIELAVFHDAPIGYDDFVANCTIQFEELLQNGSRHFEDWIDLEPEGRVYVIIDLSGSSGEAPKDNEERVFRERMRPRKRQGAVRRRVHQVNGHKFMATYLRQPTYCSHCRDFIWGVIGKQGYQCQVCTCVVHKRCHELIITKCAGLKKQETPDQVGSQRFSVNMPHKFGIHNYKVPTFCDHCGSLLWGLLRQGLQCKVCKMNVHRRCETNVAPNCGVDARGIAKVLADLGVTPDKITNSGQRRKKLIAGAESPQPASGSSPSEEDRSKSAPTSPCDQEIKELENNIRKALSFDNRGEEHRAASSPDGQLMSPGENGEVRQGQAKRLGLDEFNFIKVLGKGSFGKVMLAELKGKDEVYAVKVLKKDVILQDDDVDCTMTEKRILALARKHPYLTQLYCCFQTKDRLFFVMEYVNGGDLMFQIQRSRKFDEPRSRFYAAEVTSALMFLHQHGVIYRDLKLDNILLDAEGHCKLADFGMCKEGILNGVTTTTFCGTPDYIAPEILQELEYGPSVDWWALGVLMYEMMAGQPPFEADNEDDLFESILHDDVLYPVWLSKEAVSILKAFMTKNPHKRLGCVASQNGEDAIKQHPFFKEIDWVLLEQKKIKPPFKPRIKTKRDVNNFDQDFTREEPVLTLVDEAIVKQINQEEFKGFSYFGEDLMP
# EPHA5 = target: T15, EPHA5 (Homo sapiens, UniProt P54756); experiment: KINOMEscan panel screen; assay type: binding; conditions: read-out: Percent Control(%)
# T15 construct: purchased DiscoveRx KINOMEscan (Ambit Biosciences)
# T15 sequence (P54756 25-1037): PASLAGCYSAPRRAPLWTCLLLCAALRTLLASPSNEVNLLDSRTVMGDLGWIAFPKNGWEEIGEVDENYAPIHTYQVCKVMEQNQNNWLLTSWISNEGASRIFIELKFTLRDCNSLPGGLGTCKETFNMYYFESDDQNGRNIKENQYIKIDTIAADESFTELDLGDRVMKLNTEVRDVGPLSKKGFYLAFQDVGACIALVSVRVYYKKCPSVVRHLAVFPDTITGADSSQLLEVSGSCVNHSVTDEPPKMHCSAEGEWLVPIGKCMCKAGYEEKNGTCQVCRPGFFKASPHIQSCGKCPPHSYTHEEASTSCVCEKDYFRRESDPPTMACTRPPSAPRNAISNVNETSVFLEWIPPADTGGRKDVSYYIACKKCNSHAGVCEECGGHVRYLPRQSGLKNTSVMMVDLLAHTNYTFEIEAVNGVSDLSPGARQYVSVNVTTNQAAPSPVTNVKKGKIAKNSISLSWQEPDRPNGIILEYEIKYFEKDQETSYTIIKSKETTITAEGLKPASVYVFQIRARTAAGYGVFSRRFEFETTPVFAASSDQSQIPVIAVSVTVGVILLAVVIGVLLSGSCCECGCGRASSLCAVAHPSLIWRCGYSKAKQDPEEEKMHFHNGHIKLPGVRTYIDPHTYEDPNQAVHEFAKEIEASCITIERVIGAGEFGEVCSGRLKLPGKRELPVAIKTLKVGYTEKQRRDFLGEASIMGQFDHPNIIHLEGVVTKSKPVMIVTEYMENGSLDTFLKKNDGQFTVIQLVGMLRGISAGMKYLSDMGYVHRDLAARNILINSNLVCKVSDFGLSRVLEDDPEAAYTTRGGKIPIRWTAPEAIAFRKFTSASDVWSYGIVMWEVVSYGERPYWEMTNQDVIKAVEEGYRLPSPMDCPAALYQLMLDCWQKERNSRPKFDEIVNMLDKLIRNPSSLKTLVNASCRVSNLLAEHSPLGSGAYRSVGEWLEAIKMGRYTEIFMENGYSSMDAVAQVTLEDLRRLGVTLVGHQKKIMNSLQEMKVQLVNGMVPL
# HCK = target: T16, HCK (Homo sapiens, UniProt P08631); experiment: KINOMEscan panel screen; assay type: binding; conditions: read-out: Percent Control(%)
# T16 construct: purchased DiscoveRx KINOMEscan (Ambit Biosciences)
# CHEK2 = target: T17, CHEK2 (Homo sapiens, UniProt O96017); experiment: KINOMEscan panel screen; assay type: binding; conditions: read-out: Percent Control(%)
# T17 construct: purchased DiscoveRx KINOMEscan (Ambit Biosciences)
# T17 sequence (O96017 whole entry): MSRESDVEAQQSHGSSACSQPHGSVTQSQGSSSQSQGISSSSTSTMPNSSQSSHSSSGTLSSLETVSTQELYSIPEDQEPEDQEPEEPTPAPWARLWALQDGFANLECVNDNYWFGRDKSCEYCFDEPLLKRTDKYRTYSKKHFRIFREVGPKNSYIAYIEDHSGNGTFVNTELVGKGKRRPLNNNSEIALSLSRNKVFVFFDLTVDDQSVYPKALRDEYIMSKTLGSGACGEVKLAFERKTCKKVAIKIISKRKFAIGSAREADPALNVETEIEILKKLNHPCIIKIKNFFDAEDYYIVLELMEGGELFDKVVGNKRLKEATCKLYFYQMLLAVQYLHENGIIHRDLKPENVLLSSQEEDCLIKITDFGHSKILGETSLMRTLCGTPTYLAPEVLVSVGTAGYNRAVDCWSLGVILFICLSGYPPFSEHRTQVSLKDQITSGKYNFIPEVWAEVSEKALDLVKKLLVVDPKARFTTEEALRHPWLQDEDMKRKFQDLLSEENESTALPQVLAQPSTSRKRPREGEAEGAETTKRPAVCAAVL
# ERN1 = ERN1 (Homo sapiens, UniProt O75460); experiment: KINOMEscan panel screen; assay type: binding; conditions: read-out: Percent Control(%)
# FLT4 = target: T18, FLT4 (Homo sapiens, UniProt P35916); experiment: KINOMEscan panel screen; assay type: binding; conditions: read-out: Percent Control(%)
# T18 construct: purchased DiscoveRx KINOMEscan (Ambit Biosciences)
# PIK3CA(Q546K) = target: T19, PIK3CA(Q546K) (Homo sapiens, UniProt P42336, Q546K); experiment: KINOMEscan panel screen; assay type: binding; conditions: read-out: Percent Control(%)
# T19 construct: purchased DiscoveRx KINOMEscan (Ambit Biosciences)
# CSNK1A1L = target: T20, CSNK1A1L (Homo sapiens, UniProt Q8N752); experiment: KINOMEscan panel screen; assay type: binding; conditions: read-out: Percent Control(%)
# T20 construct: purchased DiscoveRx KINOMEscan (Ambit Biosciences)
# T20 sequence (Q8N752 whole entry): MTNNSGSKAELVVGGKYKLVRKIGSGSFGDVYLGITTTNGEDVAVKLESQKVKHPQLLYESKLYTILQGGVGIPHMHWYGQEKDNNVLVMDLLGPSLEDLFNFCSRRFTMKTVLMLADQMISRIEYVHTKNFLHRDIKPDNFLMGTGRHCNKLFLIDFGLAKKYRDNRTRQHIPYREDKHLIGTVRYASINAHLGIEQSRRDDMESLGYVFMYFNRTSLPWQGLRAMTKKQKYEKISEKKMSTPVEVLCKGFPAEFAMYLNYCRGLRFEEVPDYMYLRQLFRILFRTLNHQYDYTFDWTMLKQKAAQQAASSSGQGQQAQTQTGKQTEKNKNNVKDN
# ERBB4 = target: T21, ERBB4 (Homo sapiens, UniProt Q15303); experiment: KINOMEscan panel screen; assay type: binding; conditions: read-out: Percent Control(%)
# T21 construct: purchased DiscoveRx KINOMEscan (Ambit Biosciences)
# CHEK1 = target: T22, CHEK1 (Homo sapiens, UniProt O14757); experiment: KINOMEscan panel screen; assay type: binding; conditions: read-out: Percent Control(%)
# T22 construct: purchased DiscoveRx KINOMEscan (Ambit Biosciences)
# T22 sequence (O14757 1-476): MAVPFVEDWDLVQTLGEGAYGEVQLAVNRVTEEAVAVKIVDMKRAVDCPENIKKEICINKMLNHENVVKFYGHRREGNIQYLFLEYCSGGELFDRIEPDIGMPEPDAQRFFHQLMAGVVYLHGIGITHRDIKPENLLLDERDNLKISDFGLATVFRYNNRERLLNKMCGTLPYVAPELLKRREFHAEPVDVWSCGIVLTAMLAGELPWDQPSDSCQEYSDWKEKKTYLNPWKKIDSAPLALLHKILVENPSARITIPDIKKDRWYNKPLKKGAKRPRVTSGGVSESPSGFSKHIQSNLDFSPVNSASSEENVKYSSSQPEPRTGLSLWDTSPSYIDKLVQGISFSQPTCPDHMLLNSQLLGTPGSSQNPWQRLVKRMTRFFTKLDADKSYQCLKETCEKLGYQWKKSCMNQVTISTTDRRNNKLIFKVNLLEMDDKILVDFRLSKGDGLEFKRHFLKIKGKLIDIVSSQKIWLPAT
# HPK1 = target: T23, HPK1 (Homo sapiens, UniProt Q92918); experiment: KINOMEscan panel screen; assay type: binding; conditions: read-out: Percent Control(%)
# T23 construct: purchased DiscoveRx KINOMEscan (Ambit Biosciences)
# T1 sequence (Q9BRS2 whole entry): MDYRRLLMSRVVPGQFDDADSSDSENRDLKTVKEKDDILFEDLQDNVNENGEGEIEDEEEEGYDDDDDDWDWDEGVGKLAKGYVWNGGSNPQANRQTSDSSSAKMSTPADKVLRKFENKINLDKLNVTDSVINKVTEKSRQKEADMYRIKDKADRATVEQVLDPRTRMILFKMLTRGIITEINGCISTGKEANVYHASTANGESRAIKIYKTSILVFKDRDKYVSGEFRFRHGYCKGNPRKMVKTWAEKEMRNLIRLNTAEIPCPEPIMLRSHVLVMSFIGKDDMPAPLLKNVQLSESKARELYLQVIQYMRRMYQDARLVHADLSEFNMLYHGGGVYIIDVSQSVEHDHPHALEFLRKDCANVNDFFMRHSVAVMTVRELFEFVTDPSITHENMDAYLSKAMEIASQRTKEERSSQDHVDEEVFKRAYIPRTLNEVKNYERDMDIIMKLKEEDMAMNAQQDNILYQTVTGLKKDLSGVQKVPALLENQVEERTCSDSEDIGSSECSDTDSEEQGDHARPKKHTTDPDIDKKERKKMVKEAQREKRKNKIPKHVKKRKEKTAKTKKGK
smiles,measurement,setting,value
"CC(C)(C)c1cc(NC(=O)Nc2ccc(Oc3ncnc4[nH]ncc34)c(F)c2)no1 [SKLB-677, 1-(4-(1H-pyrazolo[3,4-d]pyrimidin-4-yloxy)-3-fluorophenyl)-3-(5-tert-butylisoxazol-3-yl)urea]",remaining binding at 10 µM,RIOK1,89%
same,remaining binding at 10 µM,TNK1,2.2%
same,remaining binding at 10 µM,FGFR1,1.4%
same,remaining binding at 10 µM,SLK,0.2%
same,remaining binding at 10 µM,DLK,86%
same,remaining binding at 10 µM,TAK1,100%
same,remaining binding at 10 µM,BMX,73%
same,protein levels of the total β-catenin and active β-catenin,[1],slightly decreased
same,remaining binding at 10 µM,PIK3CA(E545K),100%
same,remaining binding at 10 µM,ACVR2B,81%
same,remaining binding at 10 µM,MAP3K15,100%
same,remaining binding at 10 µM,YES,27%
same,IC50,SU-DHL-6,7.78 µM
same,remaining binding at 10 µM,RET(M918T),0%
same,remaining binding at 10 µM,CDK7,3.1%
same,remaining binding at 10 µM,PRKCE,90%
same,remaining binding at 10 µM,EPHA5,0.7%
same,remaining binding at 10 µM,HCK,0.5%
same,remaining binding at 10 µM,CHEK2,32%
same,remaining binding at 10 µM,ERN1,100%
same,remaining binding at 10 µM,FLT4,0%
same,remaining binding at 10 µM,PIK3CA(Q546K),100%
same,remaining binding at 10 µM,CSNK1A1L,68%
same,remaining binding at 10 µM,ERBB4,81%
same,remaining binding at 10 µM,CHEK1,100%
same,remaining binding at 10 µM,HPK1,13%
